The numbers were not newly measured in patent publication US20250381160A1, “Method and Apparatus for Providing Transdermal Delivery of a Carbidopa/Levodopa-Based Lotion for the Treatment of Parkinson's Disease” (Through The Skin LLC, priority 2024, published 2025), which cites them from elsewhere.

Assay in series [1]: not given
The source holds these as a separate data set.

Another series relates to Parkinson's Disease. The conditions noted are these: carbidopa given with levodopa.
The conditions of series [2]: with HA of 150,000-750,000 Daltons, 1-3% of the solution, versus formulations without hyaluronic acid.

Turning to `NC(Cc1ccc(O)c(O)c1)C(=O)O` (single isomer, unassigned; (-)) [Levodopa, (-)-L-α-amino-β-(3,4-dihydroxybenzene) propanoic acid], the solubility in water result is recorded as “slightly soluble in water”. The half-life of levodopa result in series [1] (carbidopa and levodopa administered together) is given as “about 1.5 hours”. Also, the “plasma half-life of levodopa” value in series [1] (without carbidopa) is listed as “about 50 minutes”.
On to `CC(Cc1ccc(O)c(O)c1)(NN)C(=O)O` (single isomer, unassigned; (-)) [Carbidopa, (-)-L-α-hydrazino-α-methyl-β-(3,4-dihydroxybenzene) propanoic acid monohydrate], for which the solubility in water result is listed as “slightly soluble in water”. The “reduction of the amount of levodopa required to produce a given response” value in the series with Parkinson's Disease is “about 75%”.
`O=C(O)Cc1ccccc1Nc1c(Cl)cccc1Cl` [diclofenac sodium]: the “increase of the amount that penetrated the skin” value in series [2] was 3 times.
